Test results as given in paper PMC6685790 (Nature structural & molecular biology, 2008).
Substitutions are numbered along the chain they refer to. One block for each compound: values may come before it.

Tests used:
[1] = biological target: T1, GlyR α1^V60A (Homo sapiens, UniProt P23415, V88A); test: Whole-cell recording of substituted GlyR in HEK cells; assay type: cell-based
T1 sequence (P23415 29-457 V88A): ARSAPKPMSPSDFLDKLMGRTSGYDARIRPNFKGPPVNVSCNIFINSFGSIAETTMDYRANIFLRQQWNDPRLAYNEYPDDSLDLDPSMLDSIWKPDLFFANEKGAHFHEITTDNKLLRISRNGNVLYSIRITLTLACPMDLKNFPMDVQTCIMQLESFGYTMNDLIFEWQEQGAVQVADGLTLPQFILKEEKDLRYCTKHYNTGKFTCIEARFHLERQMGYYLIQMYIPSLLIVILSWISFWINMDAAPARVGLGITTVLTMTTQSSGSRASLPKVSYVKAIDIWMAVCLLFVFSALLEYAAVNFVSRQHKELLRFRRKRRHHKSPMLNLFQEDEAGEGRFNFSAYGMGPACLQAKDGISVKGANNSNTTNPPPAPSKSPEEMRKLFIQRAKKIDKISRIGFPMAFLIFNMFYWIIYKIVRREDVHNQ

[2] = biological target: T2, GlyR α1 WT (Homo sapiens, UniProt P23415); test: Cell-attached single-channel recording of wild-type GlyR α1 in HEK 293 cells; assay type: cell-based
T2 sequence (P23415 29-457): T1 sequence (P23415 29-457 V88A) with A60V

[3] = biological target: T3, GlyR α1^L134A (Homo sapiens, UniProt P23415, L162A); test: Whole-cell recording of substituted GlyR in HEK cells; assay type: cell-based; conditions: α1^L134A
T3 sequence (P23415 29-457 L162A): T1 sequence (P23415 29-457 V88A) with A60V, L134A

[4] = biological target: T4, GlyR α1^L64A (Homo sapiens, UniProt P23415, L92A); test: as above; assay type: cell-based
T4 sequence (P23415 29-457 L92A): T1 sequence (P23415 29-457 V88A) with A60V, L64A

[5] = biological target: GlyR α1^T113G (Homo sapiens, UniProt P23415, T141G); test: as above; assay type: cell-based; conditions: α1^T113G vs WT
GlyR α1^T113G, sequence (P23415 29-457 T141G): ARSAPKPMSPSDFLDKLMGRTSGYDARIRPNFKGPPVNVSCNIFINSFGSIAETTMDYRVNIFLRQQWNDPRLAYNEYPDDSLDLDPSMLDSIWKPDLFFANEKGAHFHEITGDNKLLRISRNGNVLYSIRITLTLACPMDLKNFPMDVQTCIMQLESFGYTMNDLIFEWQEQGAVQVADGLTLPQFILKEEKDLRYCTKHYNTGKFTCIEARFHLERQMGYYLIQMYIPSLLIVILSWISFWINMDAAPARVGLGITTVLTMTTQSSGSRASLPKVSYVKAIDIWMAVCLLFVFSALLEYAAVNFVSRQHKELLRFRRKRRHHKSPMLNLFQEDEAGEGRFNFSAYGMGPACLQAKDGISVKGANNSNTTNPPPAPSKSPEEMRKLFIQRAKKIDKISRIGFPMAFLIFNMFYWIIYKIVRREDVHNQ

[6] = biological target: GlyR α1^T112A (Homo sapiens, UniProt P23415, T140A); assay type: cell-based
GlyR α1^T112A, sequence (P23415 29-457 T140A): as the sequence (P23415 29-457 T141G) above, with T112A, G113T counted along it

[7] = biological target: GlyR α1 F99L (Homo sapiens, UniProt P23415, F127L); test: Whole-cell recording of substituted GlyR in HEK cells; assay type: cell-based; conditions: same cell
GlyR α1 F99L, sequence (P23415 29-457 F127L): as the sequence (P23415 29-457 T141G) above, with F99L, G113T counted along it

[8] = tested on: Zn^2+-activated GlyRs (ZAGs); assay type: cell-based, human; conditions: substituted GlyRs, n = 5; close to ECl
[9] = biological target: GlyR α1 F108Y (Homo sapiens, UniProt P23415, F136Y); test: Whole-cell recording of substituted GlyR in HEK cells; assay type: cell-based; conditions: same cell
GlyR α1 F108Y, sequence (P23415 29-457 F136Y): as the sequence (P23415 29-457 T141G) above, with F108Y, G113T counted along it

[10] = biological target: GlyR α1^L134A, D84A (Homo sapiens, UniProt P23415, D112A/L162A); test: as above; assay type: cell-based
GlyR α1^L134A, D84A, sequence (P23415 29-457 D112A/L162A): as the sequence (P23415 29-457 T141G) above, with D84A, G113T, L134A counted along it

[11] = biological target: GlyR α1^L134A, D86A (Homo sapiens, UniProt P23415, D114A/L162A); test: as above; assay type: cell-based
GlyR α1^L134A, D86A, sequence (P23415 29-457 D114A/L162A): as the sequence (P23415 29-457 T141G) above, with D86A, G113T, L134A counted along it

[12] = read-out: Zn^2+ Inhibition IC50, modulation of EC50 glycine currents
[13] = read-out: Zn^2+ Activation EC50, direct activation without glycine
[14] = maximal Zn^2+ response as percentage of maximal glycine response in same cell

- Glycine Imax [1]: 6.5 ± 1.3 nA
- Glycine nH ([1]; Hill slope): 3.5 ± 0.8
- Burst durations Area, component 1 ([2]; α1 WT +30 μM Gly): 28 ± 7%
- Burst durations Area, component 2 ([2]; α1 WT +30 μM Gly): 22 ± 4%
- Burst durations Area, component 3 ([2]; α1 WT +30 μM Gly): 35 ± 5%
- Burst durations Area, component 4 ([2]; α1 WT +30 μM Gly): 19 ± 7%
- Burst durations τB, component 1 ([2]; α1 WT +30 μM Gly): 0.3 ± 0.06 ms
- Burst durations τB, component 2 ([2]; α1 WT +30 μM Gly): 1.4 ± 0.6 ms
- Burst durations τB, component 3 ([2]; α1 WT +30 μM Gly): 6.9 ± 2.2 ms
- Burst durations τB, component 4 ([2]; α1 WT +30 μM Gly): 63.4 ± 14.8 ms
- Closed times Area, component 1 ([2]; α1 WT +30 μM Gly): 44 ± 16%
- Closed times Area, component 2 ([2]; α1 WT +30 μM Gly): 35 ± 15%
- Closed times Area, component 3 ([2]; α1 WT +30 μM Gly): 8 ± 1%
- Closed times Area, component 4 ([2]; α1 WT +30 μM Gly): 10 ± 2%
- Closed times Area, component 5 ([2]; α1 WT +30 μM Gly): 4 ± 1%
- Closed times τC, component 1 ([2]; α1 WT +30 μM Gly): 0.22 ± 0.03 ms
- Closed times τC, component 2 ([2]; α1 WT +30 μM Gly): 0.90 ± 0.24 ms
- Closed times τC, component 3 ([2]; α1 WT +30 μM Gly): 4.3 ± 1.6 ms
- Closed times τC, component 4 ([2]; α1 WT +30 μM Gly): 109 ± 6.2 ms
- Closed times τC, component 5 ([2]; α1 WT +30 μM Gly): 2200 ± 1000 ms
- Open times Area, component 1 ([2]; α1 WT +30 μM Gly): 36 ± 11%
- Open times Area, component 2 ([2]; α1 WT +30 μM Gly): 39 ± 3%
- Open times Area, component 3 ([2]; α1 WT +30 μM Gly): 26 ± 10%
- Open times τO, component 2 ([2]; α1 WT +30 μM Gly): 1.5 ± 0.2 ms
- Open times τO, component 3 ([2]; α1 WT +30 μM Gly): 8.9 ± 2.1 ms
- Open times τO, component 1 ([2]; α1 WT +30 μM Gly, +60 mV pipette potential): 0.28 ± 0.029 ms
- Estimated single channel conductance ([2]; α1 WT activated by glycine): ~ 60 pS
- PO (open probability within clusters/bursts) ([2]; α1 WT activated by glycine): 0.9 ± 0.03
- Single channel Amplitude ([2]; α1 WT activated by glycine, +60 mV pipette potential): 4 – 5 pA
- Single channel Amplitude ([2]; α1 WT activated by glycine, +60 mV pipette potential, listed as Gly): 4.5 ± 0.7 pA
- Glycine Imax [3]: 6.0 ± 0.3 nA
- Glycine nH ([3]; Hill slope): 3.0 ± 0.4
- Glycine Imax [4]: 5.6 ± 0.8 nA
- Glycine nH ([4]; Hill slope): 2 ± 0.6
- Increase in glycine sensitivity compared to WT [5]: 3 fold
Structure (SMILES): NCC(=O)O [Glycine, glycine]

- Zn^2+ activation [6]: highly-sensitive and efficacious ZAG
- Maximal Zn^2+ (1 mM)-activated current normalised to glycine Imax (10 mM) [7]: < 2 % Gly Imax
- Zn^2+ Activation EC50 ([1]; direct activation without glycine): None
- IC50 [1, 12]: 10.1 ± 1.26 µM
- Maximal Zn^2+ (1 mM)-activated current normalised to glycine Imax (10 mM) [9]: < 2 % Gly Imax
- Zn^2+ activation (normalised to Gly Imax) ([10]; D84A): 5 ± 1%
- Increase of Zn^2+ activation EC50 relative to α1^L134A ([10]; D84A vs α1^L134A): 120 fold
- Zn^2+ activation (normalised to Gly Imax) ([11]; D86A): 2.4 ± 1.2%
- Increase of Zn^2+ activation EC50 relative to α1^L134A ([11]; D86A vs α1^L134A): 15 fold
- EC50 [3, 13]: 0.06 ± 0.01 µM
- IC50 [3, 12]: > 1000 µM
- Zn^2+ Activation nH ([3]; Hill slope): 1.3 ± 0.1
- Zn^2+ Activation Relative efficacy (% Gly Imax) [3, 14]: 38 ± 9 % Gly Imax
- Zn^2+ Activation nH ([4]; Hill slope): 1.1 ± 0.4
- Zn^2+ Activation Relative efficacy (% Gly Imax) [4, 14]: 10 ± 3 % Gly Imax
- EC50 [4, 13]: 1.5 ± 1.3 µM
- IC50 [4, 12]: 70 ± 9 µM
Structure (SMILES): [Zn+2] [Zn^2+]
- Reversal potential of Zn^2+-activated currents [8]: 0.4 ± 1.4 mV
